Experimental data taken from the SangsterLogP compilation.

Experiment: method code SF-AS, from DOI: 10.1139/v66-154

Compound | logP
O=[N+]([O-])/C=C/c1ccc(Cl)cc1 | 2.44
O=[N+]([O-])/C=C/c1ccccc1[N+](=O)[O-] | 1.8
O=[N+]([O-])C=Cc1cccc(O)c1 | 2.07
O=C1C=CC(=O)c2ccccc21 | 1.71
O=[N+]([O-])C=Cc1cc([N+](=O)[O-])ccc1Cl | 2.23
O=[N+]([O-])/C=C/c1cccc(Cl)c1 | 2.57
O=[N+]([O-])/C=C/c1ccc([N+](=O)[O-])cc1 | 1.89
CN(C)c1ccc(/C=C/[N+](=O)[O-])cc1 | 2.67
COc1cccc(/C=C/[N+](=O)[O-])c1 | 2.3
COc1cc(C=C[N+](=O)[O-])ccc1O | 1.88
O=[N+]([O-])/C=C/c1ccccc1Cl | 2.85
O=[N+]([O-])C=Cc1ccccc1 | 2.11
O=[N+]([O-])/C=C/c1ccc(O)cc1 | 2.12
O=[N+]([O-])/C=C/c1cccc([N+](=O)[O-])c1 | 1.82
C/C(=C\c1ccccc1)[N+](=O)[O-] | 2.52

Other lines, results leading:

logP | Compound
2.07 | CCCCSC1=C(NC(C)=O)C(=O)c2ccccc2C1=O
1.35 | COC1=CC(=O)c2ccccc2C1=O
2.14 | COC1=C(C)C(=O)c2ccccc2C1=O
2.14 | O=C1C=C(S(=O)(=O)c2ccccc2)C(=O)c2ccccc21
1.2 | CC1=C(O)c2ccccc2C(=O)C1=O
2.15 | O=C1C=C(Cl)C(=O)c2ccccc21
4.22 | O=C1C(Cl)=C(Nc2ccccc2)C(=O)c2ccccc21
4.26 | CCCCNC1=C(Cl)C(=O)c2ccccc2C1=O
3.38 | O=C1C(Nc2ccccc2)=C(S(=O)(=O)c2ccccc2)C(=O)c2ccccc21
1.29 | CC(=O)NC1=CC(=O)c2ccccc2C1=O
3.29 | CCCCSC1=CC(=O)c2ccccc2C1=O
3.11 | CCCCNC1=CC(=O)c2ccccc2C1=O
2.1 | Cc1ccc2c(c1)C(=O)C=CC2=O
1.73 | CC(=O)NC1=C(Nc2ccccc2)C(=O)c2ccccc2C1=O
4.4 | O=C1C=C(c2ccccc2)C(=O)c2ccccc21
2.49 | Cc1cc2c(cc1C)C(=O)C=CC2=O
2.84 | O=C1C=C(Nc2ccccc2)C(=O)c2ccccc21
